Source: patent US20260007613A1, “LONG-ACTING LOW-TOXICITY NOVEL CATIONIC LIPID COMPOUNDS AND COMPOSITION THEREOF” (BEIJING YOUCAREKECHUANG PHARMACEUTICAL TECHNOLOGY CO., LTD., priority 2023, published 2026)
Several values for one entry are separate records, joined by “and”; a condition that tells them apart may be missing. Equal entries are not always repeated.

Key:
liver = assay: Distribution of liposomes in mice: protein expression in the liver (live imaging); type: in vivo; details: at 6 h
Protocol: The LNP formulation containing […] Fluc-mRNA was injected intramuscularly into female BALB/C mice aged 4 to 6 weeks old and weighed 17 to 19 g, and the mice were intraperitoneally injected with fluorescent imaging substrate at specific time points after administration (6 h, 24 h, 48 h and 7 d), where the mice were free to move for 5 minutes, and then the average radiation intensity (corresponding to fluorescence expression intensity) of the protein expression of the mRNA carried by the LNP in the mice was detected by the IVIS Spectrum small animal live imaging device.
At 24 h, the LNP formulations prepared from all compounds had been metabolized in the liver and had no protein expression.

293T cells [1] = assay: Fluorescent detection of Fluc-mRNA (cell transfection efficiency of LNP formulations); type: cell-based
In short: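 293T cells were seeded at 10,000/well and cultured overnight, then given LNP carrying […] Fluc-mRNA (cationic:neutral:structured:polymer-conjugated lipid 49:10:39.5:1.5 molar) for 24 h. Luminescence was developed with […] and imaged on IVIS.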

[2] = Particle size and polydispersity index (PDI) of lipid nanoparticles by dynamic light scattering; type: physicochemical; details: LNP formulation prepared from the cationic lipid, 25° C.
Protocol: The particle size and polydispersity index (PDI) were determined by dynamic light scattering using Malvern laser particle size analyzer.
10 μL of the liposome solution was weighed, diluted to 1 mL with RNase-free deionized water, and added to the sample pool. Each sample was measured in triplicate. The measurement conditions were: […] scattering angle, and 25° C.

female BALB/C mice = assay: Live imaging in mice: protein expression of Fluc-mRNA delivered by LNP formulations; type: in vivo; details: for average radiation intensity, times that of ALC-0315: comparator ALC-0315; for average radiation intensity, times that of HHMA: comparator HHMA; for average radiation intensity, times that of SM-102: comparator SM-102; for expression of mRNA in mice, times that of YK-302: comparator YK-302; for expression amount, times that of YK-309: comparator YK-309; for expression amount, times that of YK-313: comparator YK-313; for expression amount, times that of YK-321: comparator YK-321; for average radiation intensity, times that of compound 21: comparator compound 21; for average radiation intensity, times that of compound 23: comparator compound 23
In short: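 Female BALB/C mice (4-6 weeks, 17-19 g) received LNP-formulated Fluc-mRNA […] intramuscularly. At 6 h, 24 h, 48 h and 7 d, luciferase substrate given intraperitoneally, and after 5 min average radiance measured by IVIS whole-body imaging.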

293T cells [3] = assay: Cell survival rate determination (CCK-8); type: cell-based
In short: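 293T cells plated at 10,000/well (96-well), adhered overnight, then exposed 24 h to Fluc-mRNA LNP (cationic:neutral:structured:PEG-lipid 49:10:39.5:1.5) or Lipofectamine 3000. Viability by CCK-8, 1 h incubation, absorbance at 450 nm.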

**Q.** Which results are given for `CCCCCCCCC(CCCCCCCC)COC(=O)CCCCCN(CCCCCC(=O)OCC(CCCCCCCC)CCCCCCCC)C[C@H](O)CN(C)CCO` [YK-305, (R)-Bis(2-octyldecyl)-6,6′-((2-hydroxy-3-((2-hydroxyethyl)(methyl)amino)propyl)azanediyl)dihexanoate]?
**A.** expression amount in the liver compared with ALC-0315 and SM-102 (liver): reduced; protein expression in the liver (liver; intramuscular injection): had protein expression in the liver; Relative light unit (RLU) (293T cells [1]; LNP formulation of Fluc-mRNA, 96-well plate, 24 hours): 27408734 RLU; Multiples (YK-305) (293T cells [1]; RLU of YK-305 / RLU of the lipid of the line): 1.00; Multiples (YK-310) (293T cells [1]; RLU of YK-310 / RLU of the lipid of the line): 0.94; Multiples (YK-312) (293T cells [1]; RLU of YK-312 / RLU of the lipid of the line): 0.74; Multiples (YK-318) (293T cells [1]; RLU of YK-318 / RLU of the lipid of the line, Tables 5, 7, 11): 0.41; Multiples (YK-319) (293T cells [1]; RLU of YK-319 / RLU of the lipid of the line, Tables 5, 7, 11): 0.89; Ratio relative to SM-102 (293T cells [1]; RLU of the lipid / RLU of SM-102, times that of SM-102): 17.09; cell transfection efficiency, times that of ALC-0315 (293T cells [1]; comparator ALC-0315): 13.48 times; cell transfection efficiency, times that of HHMA (293T cells [1]; comparator HHMA): 13.66 times; cell transfection efficiency, times that of Lipofectamine 3000 (293T cells [1]; comparator Lipofectamine 3000): 23.12 times; cell transfection efficiency, times that of YK-009 (293T cells [1]; comparator YK-009): 5.35 times; cell transfection efficiency, times that of YK-301 (293T cells [1]; comparator YK-301): 32.53 times; cell transfection efficiency, times that of YK-303 (293T cells [1]; comparator YK-303): 43.76 times; cell transfection efficiency, times that of YK-306 (293T cells [1]; comparator YK-306): 12.47 times; cell transfection efficiency, times that of YK-307 (293T cells [1]; comparator YK-307): 6.01 times; cell transfection efficiency, times that of YK-308 (293T cells [1]; comparator YK-308): 5.44 times; cell transfection efficiency, times that of YK-309 (293T cells [1]; comparator YK-309): ~210 times and 218.62 times and ~200 times; cell transfection efficiency, times that of YK-311 (293T cells [1]; comparator YK-311): 13.96 times; cell transfection efficiency, times that of YK-313 (293T cells [1]; comparator YK-313): 31.63 times; cell transfection efficiency, times that of YK-314 (293T cells [1]; comparator YK-314): 50.07 times; cell transfection efficiency, times that of YK-315 (293T cells [1]; comparator YK-315): 17.27 times; cell transfection efficiency, times that of YK-316 (293T cells [1]; comparator YK-316): 5.70 times; cell transfection efficiency, times that of YK-317 (293T cells [1]; comparator YK-317): 7.60 times; cell transfection efficiency, times that of YK-320 (293T cells [1]; comparator YK-320): 10.14 times; cell transfection efficiency, times that of YK-321 (293T cells [1]; comparator YK-321): 19.53 times and ~20 times; cell transfection efficiency, times that of compound 21 (293T cells [1]; comparator compound 21): 19.14 times; cell transfection efficiency, times that of compound 23 (293T cells [1]; comparator compound 23): 20.21 times; PDI (%) [2]: 10.7%; Particle size (nm) [2]: 191 nm; average radiation intensity, times that of ALC-0315 (female BALB/C mice; 6 h): 10.70 times; average radiation intensity, times that of HHMA (female BALB/C mice; 6 h): 14.19 times; average radiation intensity, times that of SM-102 (female BALB/C mice; 6 h): 13.18 times; expression of mRNA in mice, times that of YK-302 (female BALB/C mice; 6 h): 633.70 times; expression amount, times that of YK-309 (female BALB/C mice; 6 h): 140.67 times; expression amount, times that of YK-313 (female BALB/C mice; 6 h): 20.89 times; expression amount, times that of YK-321 (female BALB/C mice; 6 h): 17.92 times; average radiation intensity, times that of compound 21 (female BALB/C mice; 6 h): 15.14 times; average radiation intensity, times that of compound 23 (female BALB/C mice; 6 h): 15.68 times; average radiation intensity (female BALB/C mice; 6 h after intramuscular injection): 9239340; average radiation intensity, times that of ALC-0315 (female BALB/C mice; 24 h): 14.82 times; average radiation intensity, times that of HHMA (female BALB/C mice; 24 h): 23.54 times; average radiation intensity, times that of SM-102 (female BALB/C mice; 24 h): 23.44 times; expression of mRNA in mice, times that of YK-302 (female BALB/C mice; 24 h): 713.70 times; expression amount, times that of YK-309 (female BALB/C mice; 24 h): 167.86 times; expression amount, times that of YK-313 (female BALB/C mice; 24 h): 27.04 times; expression amount, times that of YK-321 (female BALB/C mice; 24 h): 27.89 times; average radiation intensity, times that of compound 21 (female BALB/C mice; 24 h): 25.70 times; average radiation intensity, times that of compound 23 (female BALB/C mice; 24 h): 27.01 times; average radiation intensity (female BALB/C mice; 24 h after intramuscular injection): 2823400; average radiation intensity, times that of ALC-0315 (female BALB/C mice; 48 h): 26.32 times; average radiation intensity, times that of HHMA (female BALB/C mice; 48 h): 32.18 times; average radiation intensity, times that of SM-102 (female BALB/C mice; 48 h): 32.19 times; expression amount, times that of YK-309 (female BALB/C mice; 48 h): 159.93 times and ~160 times; expression amount, times that of YK-313 (female BALB/C mice; 48 h): 40.99 times; expression amount, times that of YK-321 (female BALB/C mice; 48 h): 28.65 times; average radiation intensity, times that of compound 21 (female BALB/C mice; 48 h): 33.82 times; average radiation intensity, times that of compound 23 (female BALB/C mice; 48 h): 31.63 times; average radiation intensity (female BALB/C mice; 48 h after intramuscular injection): 1047720; average radiation intensity, times that of ALC-0315 (female BALB/C mice; 7 d): 18.02 times; average radiation intensity, times that of HHMA (female BALB/C mice; 7 d): 21.63 times; average radiation intensity, times that of SM-102 (female BALB/C mice; 7 d): 19.18 times; expression amount, times that of YK-309 (female BALB/C mice; 7 d): 101.13 times and ~100 times; expression amount, times that of YK-313 (female BALB/C mice; 7 d): 39.26 times; expression amount, times that of YK-321 (female BALB/C mice; 7 d): 19.29 times; average radiation intensity, times that of compound 21 (female BALB/C mice; 7 d): 19.71 times; average radiation intensity, times that of compound 23 (female BALB/C mice; 7 d): 20.35 times; average radiation intensity (female BALB/C mice; 7 d after intramuscular injection): 127015; Cell survival rate (%) (293T cells [3]; LNP formulation of Fluc-mRNA, 24 hours, CCK-8): 82.18%; cell survival rate higher than ALC-0315 (293T cells [3]; difference of survival rates, comparator ALC-0315): 31.15% and ~30%; cell survival rate higher than HHMA (293T cells [3]; difference of survival rates, comparator HHMA): 15.71% and ~15%; cell survival rate higher than Lipofectamine 3000 (293T cells [3]; difference of survival rates, comparator Lipofectamine 3000): 57.17%; cell survival rate higher than SM-102 (293T cells [3]; difference of survival rates, comparator SM-102): 12.73% and ~12%; cell survival rate higher than YK-301 (293T cells [3]; difference of survival rates, comparator YK-301): 29.22%; cell survival rate higher than YK-302 (293T cells [3]; difference of survival rates, comparator YK-302): 65.75% and ~65% and ~50%; cell survival rate higher than YK-303 (293T cells [3]; difference of survival rates, comparator YK-303): 18.86%; cell survival rate higher than YK-304 (293T cells [3]; difference of survival rates, comparator YK-304): 48.02%; cell survival rate higher than YK-306 (293T cells [3]; difference of survival rates, comparator YK-306): 39.99%; cell survival rate higher than YK-307 (293T cells [3]; difference of survival rates, comparator YK-307): 21.04%; cell survival rate higher than YK-308 (293T cells [3]; difference of survival rates, comparator YK-308): 11.19%; cell survival rate higher than YK-309 (293T cells [3]; difference of survival rates, comparator YK-309): 50.57%; cell survival rate higher than YK-311 (293T cells [3]; difference of survival rates, comparator YK-311): 12.12%; cell survival rate higher than YK-313 (293T cells [3]; difference of survival rates, comparator YK-313): 13.25%; cell survival rate higher than YK-314 (293T cells [3]; difference of survival rates, comparator YK-314): 14.30%; cell survival rate higher than YK-315 (293T cells [3]; difference of survival rates, comparator YK-315): 10.90%; cell survival rate higher than YK-316 (293T cells [3]; difference of survival rates, comparator YK-316): 11.65%; cell survival rate higher than YK-317 (293T cells [3]; difference of survival rates, comparator YK-317): 23.00% and ~20%; cell survival rate higher than YK-320 (293T cells [3]; difference of survival rates, comparator YK-320): 11.110%; cell survival rate higher than YK-321 (293T cells [3]; difference of survival rates, comparator YK-321): 9.84%; cell survival rate higher than compound 21 (293T cells [3]; difference of survival rates, comparator compound 21): 11.97%; cell survival rate higher than compound 23 (293T cells [3]; difference of survival rates, comparator compound 23): 10.68%
